Earlier results, collected in patent US8178105B2, “Composition containing Agaricus blazei Murill” (Kyowa Hakko Bio Co., Ltd., priority 2006, dated 2012).

Tested on: Sarcoma-180
Settings: oral administration; Sarcoma-180 transplanted mouse; non-patent document 5

## N=C(N)NCCC[C@H](N)C(=O)O [arginine]
  antitumor effect and life extension (in words): marked antitumor effect and life extension
